Experimental data as given in ChEMBL document CHEMBL4330139, “Synthetically modified methoxsalen for enhanced cytotoxicity in light and dark reactions” (Bioorg Med Chem Lett, 2019).

Legend:
[1] = Dark toxicity against mouse PAM212 cells assessed as cell growth inhibition incubated for 5 days under dark condition by coulter counting method; format: cell-based
[2] = Dark toxicity against mouse PAM212 cells assessed as cell growth inhibition incubated for 30 mins under dark condition measured after 5 days by coulter counting method; format: cell-based
PAM212 = assay: Phototoxicity against mouse PAM212 cells assessed as cell growth inhibition preincubated for 30 mins followed by 1.28 J/cm2 UV light exposure and measured after 5 days by coulter counting method; format: functional, cell-based; settings: PAM212, light or radiation study

| SMILES | IC50 at 5 days [1] [µM] | IC50 at 30 min [2] [µM] | IC50 (PAM212) [µM] |
| --- | --- | --- | --- |
| COc1c2occc2c(NC(=O)c2ccc(N=[N+]=[N-])cc2)c2ccc(=O)oc12 | > 300 | > 100 | 33 |
| COc1c2occc2c(/N=N/N(C)C)c2ccc(=O)oc12 | 20 | > 100 | > 100 |
| CCN(CC)/N=N/c1c2ccoc2c(OC)c2oc(=O)ccc12 | 6 | > 100 | > 100 |
| COc1c2occc2c(NC(=O)NCCCl)c2ccc(=O)oc12 | > 300 | > 100 | > 100 |
| CCN(C)/N=N/c1c2ccoc2c(OC)c2oc(=O)ccc12 | 10 | > 100 | > 70 |
| CCCCN(C)/N=N/c1c2ccoc2c(OC)c2oc(=O)ccc12 | 7 | > 100 | 4 |
| COc1c2occc2c(NC(=O)CCl)c2ccc(=O)oc12 | 4 | 50 | 40 |
| COc1c2occc2cc2ccc(=O)oc12 [METHOXSALEN] | > 100 | > 100 | 0.1 |
